The test system of the assay is P388 leukemia ip, CD2F1 mice, survival T/C. The assay is described as follows: NCI In Vivo Anticancer Drug Screen. Data for tumor model P388 Leukemia (intraperitoneal) in CD2F1 (CDF1) mice. Conditions: endpoint: median survival time, higher = longer survival. The method, boiled down:
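Mice carrying the transplanted tumor received test compound or vehicle. Survival was recorded in each group, and the value is the treated-group measurement divided by that of the vehicle-treated control group.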

Setting [1] is: dose: 50.0 mg/kg/injection, schedule: Q01DX005 (ip), vehicle: saline with Tween-80.
The mark [2] stands for this setting: dose: 100.0 mg/kg/injection, schedule: Q01DX005 (ip), vehicle: saline with Tween-80.
The mark [3] stands for this setting: dose: 100.0 mg/kg/injection, schedule: Q01DX009 (ip), vehicle: saline with Tween-80.
[4] abbreviates: dose: 200.0 mg/kg/injection, schedule: Q01DX009 (ip), vehicle: saline with Tween-80.
Where [5] appears, read: dose: 400.0 mg/kg/injection, schedule: Q01DX009 (ip), vehicle: saline with Tween-80.
[6] abbreviates: dose: 50.0 mg/kg/injection, schedule: Q01DX009 (ip), vehicle: saline with Tween-80.
The mark [7] stands for this setting: dose: 25.0 mg/kg/injection, schedule: Q01DX005 (ip), vehicle: Klucel (hydroxypropylcellulose) (HPC).
The mark [8] stands for this setting: dose: 50.0 mg/kg/injection, schedule: Q01DX005 (ip), vehicle: Klucel (hydroxypropylcellulose) (HPC).
Setting [9] is: dose: 25.0 mg/kg/injection, schedule: Q01DX005 (ip), vehicle: saline.
[10] abbreviates: dose: 100.0 mg/kg/injection, schedule: Q01DX005 (ip), vehicle: Klucel (hydroxypropylcellulose) (HPC).
[11] abbreviates: dose: 200.0 mg/kg/injection, schedule: Q01DX005 (ip), vehicle: Klucel (hydroxypropylcellulose) (HPC).

22 compounds from PubChem BioAssay AID330 (DTP/NCI, 2004) can be followed below.

“And” between values parts separate entries of the source, which are not always exact repeats. Equal values may be shown once. Inconclusive results and toxic doses are left out. Peptide text beside a SMILES is read from it. * marks the point of attachment. Trt = c1ccc(C(c2ccccc2)(c2ccccc2)*)cc1; Bn = c1ccc(C*)cc1

Consider `COc1ccccc1C(O)(C(F)(F)F)C(F)(F)F`, for which the T/C is 101 % of control (dose: 50.0 mg/kg/injection, schedule: Q01DX009 (ip), vehicle: Klucel (hydroxypropylcellulose) (HPC)); 98 % of control (dose: 100.0 mg/kg/injection, schedule: Q01DX009 (ip), vehicle: Klucel (hydroxypropylcellulose) (HPC)); 95 % of control (dose: 200.0 mg/kg/injection, schedule: Q01DX009 (ip), vehicle: Klucel (hydroxypropylcellulose) (HPC)).

For `CSCCC(NC(=O)CN(C)C(=O)OCc1ccccc1)C(=O)O` (configuration not stated), the T/C by setting is: under setting [1], 100 % of control; under setting [2], 100 % of control.

As for `CN1C(=O)CC(=O)N(C)P1(=O)Oc1ccccc1`, the T/C was 101 % of control (dose: 100.0 mg/kg/injection, schedule: Q04DX002 (ip), vehicle: saline); 101 % of control (dose: 200.0 mg/kg/injection, schedule: Q04DX002 (ip), vehicle: saline); 101 % of control (dose: 400.0 mg/kg/injection, schedule: Q04DX002 (ip), vehicle: saline).

In the case of `O=C(Nc1ccc(C2=NCCN2)cc1)c1cc(C(=O)Nc2ccc(C3=NCCN3)cc2)cc([N+](=O)[O-])c1`, the T/C was 104 % of control (dose: 167.0 mg/kg/injection, schedule: Q01DX010 (ip), vehicle: saline); 100 % of control (dose: 250.0 mg/kg/injection, schedule: Q01DX010 (ip), vehicle: saline); 100 % of control (dose: 375.0 mg/kg/injection, schedule: Q01DX010 (ip), vehicle: saline); 95 % of control (dose: 512.0 mg/kg/injection, schedule: Q01DX010 (ip), vehicle: saline).

For the compound `CCCCNC(=S)S`, the T/C runs as follows: under setting [3], 109 % of control; under setting [4], 109 % of control; under setting [5], 104 % of control.

Consider `Oc1ccccc1C=Nc1ccccc1C(F)(F)F`, for which the T/C under setting [6] is 101 % of control, the T/C under setting [3] is 103 % of control, the T/C under setting [4] is 95 % of control and the T/C under setting [5] was 97 % of control.

On to `COc1ccc(/C=C/C(=O)OC2CC34CCNC35CC(OC5(OC)C2OC)c2ccc(OC)c(O)c24)cc1O` (configuration not stated), for which the T/C is 100 % of control (dose: 12.5 mg/kg/injection, schedule: Q01DX005 (ip), vehicle: Klucel (hydroxypropylcellulose) (HPC)); 100 % of control under setting [7]; 97 % of control under setting [8].

Consider `CCOP(=O)(OCC)C1CCCN2CCc3c([nH]c4ccccc34)C12` (configuration not stated), for which the T/C is, setting by setting: (dose: 12.5 mg/kg/injection, schedule: Q01DX009 (ip), vehicle: saline) 98 % of control; (dose: 25.0 mg/kg/injection, schedule: Q01DX009 (ip), vehicle: saline) 96 % of control; (dose: 50.0 mg/kg/injection, schedule: Q01DX009 (ip), vehicle: saline) 100 % of control and 89 % of control; (dose: 200.0 mg/kg/injection, schedule: Q01DX009 (ip), vehicle: saline) 100 % of control.

`CCOC1=NC(C)C(C)N1` (configuration not stated): the T/C (dose: 25.0 mg/kg/injection, schedule: Q01DX001 (ip), vehicle: saline) was 101 % of control; the T/C (dose: 50.0 mg/kg/injection, schedule: Q01DX001 (ip), vehicle: saline) was 101 % of control; the T/C (dose: 100.0 mg/kg/injection, schedule: Q01DX001 (ip), vehicle: saline) is 108 % of control and 97 % of control.

With `O=c1oc(-c2cccc(C[n+]3ccccc3)c2)nc2cc(Cl)ccc12`, the T/C is 98 % of control (dose: 15.0 mg/kg/injection, schedule: Q01DX005 (ip), vehicle: saline); 100 % of control (dose: 30.0 mg/kg/injection, schedule: Q01DX005 (ip), vehicle: saline); 102 % of control and 110 % of control (dose: 60.0 mg/kg/injection, schedule: Q01DX005 (ip), vehicle: saline).

On to `c1cc2c(c(-c3nccc4c3CCCC4)n1)CCCC2`, for which the T/C by setting is: under setting [1], 109 % of control; under setting [2], 109 % of control; (dose: 200.0 mg/kg/injection, schedule: Q01DX005 (ip), vehicle: saline with Tween-80) 93 % of control.

Take `Cc1nn(C(=O)c2ccncc2)c(C)c1N=Nc1nc2ccc([N+](=O)[O-])cc2s1`: the T/C is 97 % of control (dose: 100.0 mg/kg/injection, schedule: Q04DX002 (ip), vehicle: saline with Tween-80) and 94 % of control (dose: 200.0 mg/kg/injection, schedule: Q04DX002 (ip), vehicle: saline with Tween-80).

As to `CCCCCN(C)c1ncnc2[nH]ncc12`, the T/C by setting is: under setting [9], 94 % of control; (dose: 50.0 mg/kg/injection, schedule: Q01DX005 (ip), vehicle: saline) 95 % of control; (dose: 100.0 mg/kg/injection, schedule: Q01DX005 (ip), vehicle: saline) 100 % of control.

As for `OC(CN1CCCC2CCCCC21)c1cc2ccccc2c2ccccc12` (configuration not stated), the T/C by setting is: under setting [3], 108 % of control; under setting [4], 104 % of control.

With `O=C(Oc1cc(O)cc2[o+]c(-c3ccc(O)cc3)c(O)cc12)c1ccccc1`, the T/C runs as follows: under setting [8], 96 % of control; under setting [10], 109 % of control; under setting [11], 96 % of control.

For `O=C1c2ccccc2C(=Cc2cccnc2)c2ccccc21`, the T/C (dose: 6.25 mg/kg/injection, schedule: Q01DX009 (ip), vehicle: saline with Tween-80) is 94 % of control; the T/C (dose: 12.5 mg/kg/injection, schedule: Q01DX009 (ip), vehicle: saline with Tween-80) is 105 % of control; the T/C (dose: 25.0 mg/kg/injection, schedule: Q01DX009 (ip), vehicle: saline with Tween-80) was 102 % of control; the T/C under setting [6] is 91 % of control.

`COC(=O)C(CSC(c1ccccc1)(c1ccccc1)c1ccccc1)NC(=O)C(CSCc1ccccc1)NC(C)=O` (configuration not stated) (Ac-Cys(Bn)-Cys(Trt)-OMe; configuration not given here): the T/C runs as follows: (dose: 4.0 mg/kg/injection, schedule: Q01DX009 (ip), vehicle: water) 96 % of control; (dose: 8.0 mg/kg/injection, schedule: Q01DX009 (ip), vehicle: water) 104 % of control; (dose: 16.0 mg/kg/injection, schedule: Q01DX009 (ip), vehicle: water) 101 % of control; (dose: 32.0 mg/kg/injection, schedule: Q01DX009 (ip), vehicle: water) 95 % of control; (dose: 64.0 mg/kg/injection, schedule: Q01DX009 (ip), vehicle: water) 95 % of control; (dose: 128.0 mg/kg/injection, schedule: Q01DX009 (ip), vehicle: water) 90 % of control.

Regarding `COc1ccc(/C=C/C(=O)c2ccccc(=O)c2O)c(OC)c1`, the T/C under setting [7] was 101 % of control, the T/C under setting [8] was 98 % of control, the T/C under setting [10] is 105 % of control and the T/C under setting [11] was 104 % of control.

In the case of `CC1=CC(C)C[N+](C)(C)C1` (configuration not stated), the T/C was 104 % of control (dose: 3.12 mg/kg/injection, schedule: Q01DX005 (ip), vehicle: saline); 103 % of control (dose: 6.25 mg/kg/injection, schedule: Q01DX005 (ip), vehicle: saline); 100 % of control (dose: 12.5 mg/kg/injection, schedule: Q01DX005 (ip), vehicle: saline); 94 % of control under setting [9].

As for `CCOC(=O)/C=C/C(CO)OC(/C=C/C(=O)OCC)n1cnc2c(N)ncnc21` (configuration not stated), the T/C is, setting by setting: (dose: 100.0 mg/kg/injection, schedule: Q04DX002 (ip), vehicle: Klucel (hydroxypropylcellulose) (HPC)) 101 % of control; (dose: 200.0 mg/kg/injection, schedule: Q04DX002 (ip), vehicle: Klucel (hydroxypropylcellulose) (HPC)) 108 % of control; (dose: 400.0 mg/kg/injection, schedule: Q04DX002 (ip), vehicle: Klucel (hydroxypropylcellulose) (HPC)) 111 % of control.

For the compound `O=C1CC2C3Nc4ccccc4C3CCN2C2=C1CC(OC(=O)c1ccccc1)CC2` (configuration not stated), the T/C (dose: 100.0 mg/kg/injection, schedule: Q04DX003 (ip), vehicle: saline sonified) was 100 % of control; the T/C (dose: 200.0 mg/kg/injection, schedule: Q04DX003 (ip), vehicle: saline sonified) is 100 % of control; the T/C (dose: 400.0 mg/kg/injection, schedule: Q04DX003 (ip), vehicle: saline sonified) is 95 % of control.

In the case of `CCCOc1ccc2c(NCCCCCCCCNc3c4ccccc4nc4cc(OCCC)ccc34)c3ccccc3nc2c1`, the T/C (dose: 0.63 mg/kg/injection, schedule: Q01DX009 (ip), vehicle: other) is 109 % of control; the T/C (dose: 1.25 mg/kg/injection, schedule: Q01DX009 (ip), vehicle: lactic acid) is 162 % of control; the T/C (dose: 7.5 mg/kg/injection, schedule: Q01DX009 (ip), vehicle: other) was 90 % of control.
